Here are results for seven compounds from publication PMC12339378 (Molecular Psychiatry, 2025).

Data set [1] has as its system HCN channel Ih currents in VTA DA neurons. The class given is cell-based, mice.
In another data set the test system is VTA DA neurons. It is filed as cell-based, mice. The note with it: 750 µM local application for 3 min; cell-attached; average.
The conditions of data set [2]: cited from earlier work.

For `COc1ccc(C(F)(F)CN(C)CCCN2CCc3cc(OC)c(OC)cc3CC2=O)cc1OC` [compound 8], the “percent inhibition of Ih currents in VTA DA neurons” value (“percent inhibition of Ih currents” for short) in data set [1] is given as “no efficacy”. As for `COc1cc2c(cc1OC)CC(=O)N(CCCN(C)C[C@H]1Cc3cc(OC)c(OC)cc31)CC2` [Ivabradine], the “percent inhibition of Ih currents” value in data set [1] was “significant inhibition of the Ih current”. For the same compound, in the data set with VTA DA neurons, the “percent inhibition of firing rate in VTA DA neurons” value turned out to be 61.1%. For the same compound, the “ability to cross the blood-brain barrier (BBB)” value in data set [2] is “limited abilities to cross the blood-brain barrier”. With `COc1ccc(CCN(C)CCCN2CCc3cc(OC)c(OC)cc3CC2=O)cc1OC` [Zatebradine], in data set [1], the “percent inhibition of Ih currents” value is “significant inhibition of the Ih current”. In addition, the “percent inhibition of firing rate in VTA DA neurons” value in the data set with VTA DA neurons stood at 59.7%.

Turning to `COc1cc2c(cc1OC)CC(=O)N(C[C@H]1CCCN(C(=O)OC(C)(C)C)C1)CC2` [compound 11], the “percent inhibition of Ih currents” value in data set [1] is “less than half the efficacy of Cilobradine”.

Turning to `COc1cc2c(cc1OC)CC(=O)N(C[C@H]1CCCN(CCOc3ccccc3F)C1)CC2` [compound 4], the “percent inhibition of Ih currents” value in data set [1] is reported as “less efficacious than Cilobradine”. Still for that read-out and setting: the result for `COc1cc2c(cc1OC)CC(=O)N(C[C@H]1CCCN(CCOc3ccccc3)C1)CC2` [compound 3] reads “less efficacious than Cilobradine”. For `COc1ccc(CCN2CCO[C@H](CN3CCc4cc(OC)c(OC)cc4CC3=O)C2)cc1OC` [compound 6], the “percent inhibition of Ih currents” value in data set [1] was “less efficacious than Cilobradine”.
